Assay results taken from publication PMC7074199, “Phytochemicals of Minthostachys diffusa Epling and Their Health-Promoting Bioactivities” (Foods, 2020).
Read-outs that look alike come from different tables or passages of the source.

Assays:
[1] = Nitric oxide radical scavenging assay; conditions: concentration inhibiting 25% of radicals
Experimental: All M. diffusa samples were tested for their radical scavenging activity by four different in vitro chemical assays targeted against the biological super oxide anion (O2^−) and nitric oxide (NO) radicals, and the synthetic neutral DPPH and cationic ABTS^+ radicals.

[2] = biological target: T1, butyrylcholinesterase (BChE) from equine serum (Equus caballus, UniProt P81908); assay: biochemical
T1 construct: butyrylcholinesterase (BChE) from equine serum (lyophilized powder); purchased Sigma-Aldrich (Milan, Italy); host or cells: equine serum
Text: (§1) The two prevalent forms of cholinesterase in a healthy brain are acetylcholinesterase (AChE) and butyrylcholinesterase (BChE). Ellman’s reaction to analyse the AChE and BChE inhibition by the samples was used as described before.

BChE = tested on: BChE; design: method as in doi:10.1016/j.foodchem.2010.10.050; conditions: isolated from Micromeria cilicica; cited from earlier work
[3] = biological target: T2, acetylcholinesterase (AChE) from Electrophorus electricus (Electrophorus electricus, UniProt O42275); assay: biochemical
T2 construct: purchased Sigma-Aldrich (Milan, Italy) type VI-s
Text: as §1

AChE = tested on: AChE; design: method as in doi:10.1016/j.foodchem.2010.10.050; conditions: isolated from Micromeria cilicica; cited from earlier work
Oncopeltus fasciatus = tested on: Oncopeltus fasciatus; design: method as in earlier work; conditions: cited from earlier work
[4] = tested on: aged as well as scopolamine-induced amnesic rats; design: method as in doi:10.31024/ajpp.2018.4.6.17; conditions: cited from earlier work
[5] = read-out: AChE IC50 (converted)

T2 sequence (O42275 24-633): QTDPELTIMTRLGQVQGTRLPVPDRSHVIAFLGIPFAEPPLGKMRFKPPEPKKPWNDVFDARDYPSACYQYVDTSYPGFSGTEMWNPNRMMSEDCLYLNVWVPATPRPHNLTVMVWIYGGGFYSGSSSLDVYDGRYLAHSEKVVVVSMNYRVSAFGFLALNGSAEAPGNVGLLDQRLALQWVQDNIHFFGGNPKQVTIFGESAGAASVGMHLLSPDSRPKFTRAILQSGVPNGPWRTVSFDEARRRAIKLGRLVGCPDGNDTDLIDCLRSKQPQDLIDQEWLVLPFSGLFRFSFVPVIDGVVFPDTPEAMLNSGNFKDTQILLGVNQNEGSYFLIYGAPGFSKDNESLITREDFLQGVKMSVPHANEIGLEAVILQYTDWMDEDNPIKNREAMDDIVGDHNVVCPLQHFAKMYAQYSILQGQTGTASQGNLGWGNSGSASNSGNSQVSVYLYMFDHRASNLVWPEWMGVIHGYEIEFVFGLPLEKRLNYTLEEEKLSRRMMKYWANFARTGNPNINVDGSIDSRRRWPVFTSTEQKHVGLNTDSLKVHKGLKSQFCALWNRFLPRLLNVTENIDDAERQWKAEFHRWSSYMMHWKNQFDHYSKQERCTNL
T1 sequence (P81908 whole entry): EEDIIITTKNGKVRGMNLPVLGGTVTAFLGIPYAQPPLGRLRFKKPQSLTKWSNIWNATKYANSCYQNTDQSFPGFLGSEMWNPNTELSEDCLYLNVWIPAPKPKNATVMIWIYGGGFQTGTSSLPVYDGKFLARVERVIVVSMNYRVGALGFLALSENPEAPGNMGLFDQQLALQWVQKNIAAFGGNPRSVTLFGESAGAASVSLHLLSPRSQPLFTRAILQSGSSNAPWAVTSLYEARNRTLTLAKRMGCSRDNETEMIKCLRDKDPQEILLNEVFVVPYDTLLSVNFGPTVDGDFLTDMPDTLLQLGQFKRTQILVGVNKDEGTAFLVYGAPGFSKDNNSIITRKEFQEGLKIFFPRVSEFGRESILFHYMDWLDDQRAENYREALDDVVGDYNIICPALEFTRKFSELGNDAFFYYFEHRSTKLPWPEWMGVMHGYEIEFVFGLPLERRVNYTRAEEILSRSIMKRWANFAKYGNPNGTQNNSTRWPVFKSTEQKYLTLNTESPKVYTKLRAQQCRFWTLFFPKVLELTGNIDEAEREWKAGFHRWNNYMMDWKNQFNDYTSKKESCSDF

## O=C1O[C@H]([C@@H](O)CO)C(O)=C1O [ascorbic acid]
[1]
  NO IC25: 4780 ± 90 µg/mL

## COc1ccc2c3c1O[C@H]1C[C@@H](O)C=C[C@@]31CCN(C)C2 [galantamine]
[2]; read-out: BChE inhibition
  inhibition at 60 µg/mL: 67.3 ± 2.61%

## C[C@H]1[C@H](C)CC[C@]2(C(=O)O)CC[C@]3(C)C(=CC[C@@H]4[C@@]5(C)CC[C@H](O)C(C)(C)[C@@H]5CC[C@]43C)[C@H]12 [Ursolic acid]
BChE
  IC50: 41.1 µM
[2]; read-out: BChE IC50
  IC50: 83.5 ± 0.94 µM
[3]; [5]
  IC50: 85.3 ± 5.85 µM
AChE
  IC50: 93.8 µM

## CC(=O)O[C@H]1[C@H]2O[C@@]2(C)CC[C@H]1C(C)C [(−)-(1S,2R,3R,4S)-1,2-epoxy-1-methyl-4-(1-methylethyl)-cyclohex-3-yl acetate]
Oncopeltus fasciatus
  insecticidal activity: significant insecticidal activity

## C=C(C)[C@@H]1CC[C@]2(C(=O)O)CC[C@]3(C)[C@H](CC[C@@H]4[C@@]5(C)CC[C@H](O)C(C)(C)[C@@H]5CC[C@]43C)[C@@H]12 [betulinic acid]
[3]; [5]
  IC50: 19.7 µM
[4]
  effect on learning and memory: improves learning and memory

## CC1(C)CC[C@]2(C(=O)O)CC[C@]3(C)C(=CC[C@@H]4[C@@]5(C)C[C@@H](O)[C@H](O)C(C)(C)[C@@H]5CC[C@]43C)[C@@H]2C1 [maslinic acid]
[2]
  IC50: 10.6 µM
[3]
  IC50: 46.5 µM
